Assays:
[1] = tested on: immune response; conditions: Japanese Patent Pre-publication No. 44632/79; U.S. Pat. No. 4,238,507; cited from earlier work
[2] = tested on: delayed-type hypersensitivity; conditions: cited from earlier work
[3] = tested on: alkaline phosphatase; conditions: cited from earlier work
[4] = tested on: antibody-forming cells; conditions: cited from earlier work
[5] = tested on: cellular immunity (cell-mediated immunity), DTH response to sheep red blood cells; assay: Delayed-type hypersensitivity (footpad swelling), CDF1 mice; assay type: in vivo, CDF1 mouse (male, 9 weeks)
Experimental: (§1) Thus, 10^8 sheep red blood cells (SRBC) suspended in 0.05 ml of physiological saline were subcutaneously injected at the time of immunization to the right hind footpad of each ICR mouse under test (female, 6 weeks aged) to establish delayed-type hypersensitivity. Simultaneously with the immunization, a varying dose of BF-127 substance was intraperitoneally injected into each test mouse. Four days later, 10^8 sheep red blood cells were subcutantaneously injected into the left hind footpad of each test mouse for elicitation of the D.T.H. response. 24 hours after eliciting injection, the thickness of the left hind footpad was measured with a vernier caliper to evaluate the degree of the resulting edema in the footpad. The degree of the swelling serves to estimate the cellular immunity involved. In the Table, the swelling degree is expressed in terms of the values calculated by the equation: [formula]
The same test procedure as described in Example 7 was repeated but using CDF1 (DBA/2xBALB/CF1) male mice (9 weeks old), in which varying doses of BF-127 substance were intraperitoneally injected or orally administered into each test mouse. The tests results are shown in Table 3 below where the swelling degree has the same significance as in Example 7.

[6] = tested on: cellular immunity (cell-mediated immunity), DTH response to sheep red blood cells; assay: Delayed-Type Hypersensitivity (D.T.H.) technique, ICR mice immunized with sheep red blood cells (footpad swelling); assay type: in vivo, ICR mouse (female, 6 weeks); conditions: for Increase in thickness of footpad: 24 h after eliciting injection, control 8.3 ± 1.0; for Swelling degree: ICR mice, vs control
Experimental: In this Example, the effect of BF-127 substance on cellular immunity (cell-mediated immunity) was tested according to a known Delayed-Type Hypersensitivity (D.T.H.) technique (see P. H. Lagrange, G. B. Mackaness and T. E. Mille, "J. Exp. Med", 139, 1529-1539 (1974) using mice immunized with sheep red blood cells as antigen.
as §1
By way of reference, the test results conducted by the same procedure as above except that BF-127 substance was orally administered are indicated in Table 2 below.

[7] = tested on: cellular immunity (cell-mediated immunity), DTH response to sheep red blood cells; assay: Delayed-type hypersensitivity (footpad swelling), CDF1 mice; assay type: in vivo, CDF1 mouse (male, 9 weeks); conditions: other strains of mice of different ages
[8] = tested on: IMC Carcinoma; assay: Inhibitory effect on IMC Carcinoma, 5×10^6 cells transplanted; assay type: in vivo, CDF1 mouse (female, 14 weeks); conditions: 5 days, 30 days; for Average weight of tumors: untreated 12380 mg; for Inhibition: tumor growth
Excerpt: 5×10^6 IMC tumor cells were transplanted hypodermically to the inguinal section of each CDF1 mouse under test (female, 14 weeks old, 5 mice per group).

[9] = tested on: Gardner Lymphoma; assay: Inhibitory effect on growth of transplanted Gardner Lymphoma; assay type: in vivo, C3H/He mouse (female, 10 weeks); conditions: for Average weight of tumors / Inhibition: 5 days, 30 days after transplantation; for Average weight of tumors: untreated 1310 mg; for Inhibition: tumor growth
Excerpt: 10^5 Gardner Lymphoma cells were transplanted subcutaneously to the inguinal of each C3H/He mouse under test (female, 10 weeks old, 5 mice per group).

[10] = tested on: IMC Carcinoma; assay: Inhibitory effect on IMC Carcinoma, 1×10^6 cells inoculated; assay type: in vivo, CDF1 mouse (female, 14 weeks); conditions: for Average weight of tumors: untreated 5635 mg; for Inhibition: tumor growth
Excerpt: This Example illustrates the inhibitory effect of BF-127 substance on IMC Carcinoma. […] Pathological studies have shown that the above tumor is a sort of epithelial undifferentiated tumors.
5×10^6 IMC tumor cells were transplanted hypodermically to the inguinal section of each CDF1 mouse under test (female, 14 weeks old, 5 mice per group). 8 days after transplantation, a varying dose of BF-127 substance was intraperitoneally injected into each test mouse once a day for five successive days. 30 days after transplantation, the tumor formed were removed and weighed to evaluate the inhibitory effect of BF-127 substance on tumor growth in terms of average weight of the tumors formed in 5 mice.
Further tests were conducted following the procedure as above wherein 1×10^6 IMC tumor cells were inoculated and BF-127 substance was intraperitoneally injected (I.P.) or orally administered (P.O.).

[11] = 20 μg/mouse (Control) i.p. once a day
[12] = 100 μg/mouse (Control) i.p. once a day

In the case of `NC(C(=O)O)c1ccc(CO)c(O)c1` (stereo not drawn) [forphenicinol], the immunopotentiating activity [1] is given as “found to have an immunopotentiating activity”.

In the case of `NC(C(=O)O)c1ccc(C=O)c(O)c1` (stereo not drawn) [Forphenicine], the delayed-type hypersensitivity [2] is listed as “enhances delayed-type hypersensitivity”, the “inhibition of alkaline phosphatase” value [3] is listed as “strong inhibitor” and the “number of antibody-forming cells” value [4] is listed as “increases the number of antibody-forming”.

Molecule `O=C(O)c1ccc(CO)c(O)c1` [BF-127, 3-hydroxy-4-(hydroxymethyl) benzoic acid] has a Swelling degree ([5]; 0.1 μg/mouse, I.P. injection) of 119%, a Swelling degree ([5]; 0.1 μg/mouse, oral administration) of 103% and a Swelling degree ([5]; 1 μg/mouse, I.P. injection) of 129%. It also gave a Swelling degree ([5]; 1 μg/mouse, oral administration) of 115%, a Swelling degree ([5]; 10 μg/mouse, I.P. injection) of 131% and a Swelling degree ([5]; 10 μg/mouse, oral administration) of 122%. It also gave a Swelling degree ([5]; 100 μg/mouse, I.P. injection) of 133%, a Swelling degree ([5]; 100 μg/mouse, oral administration) of 142% and a Swelling degree ([5]; 1 mg/mouse, I.P. injection) of 125%. The Swelling degree ([5]; 1 mg/mouse, oral administration) was 138%, the “Increase in thickness of footpad” value ([6]; 0.1 μg/mouse i.p.) was 14.3 ± 1.1 × 0.1 mm and the Swelling degree ([6]; 0.1 μg/mouse i.p.) was 172%. For the same molecule, the “Increase in thickness of footpad” value ([6]; 1 μg/mouse i.p.) was 19.4 ± 1.8 × 0.1 mm, the Swelling degree ([6]; 1 μg/mouse i.p.) was 234% and the “Increase in thickness of footpad” value ([6]; 10 μg/mouse i.p.) was 15.5 ± 1.3 × 0.1 mm. For the same molecule, the Swelling degree ([6]; 10 μg/mouse i.p.) was 187%, the Swelling degree ([6]; 10 μg/mouse oral) was 146% and the “Increase in thickness of footpad” value ([6]; 100 μg/mouse i.p.) was 15.7 ± 0.3 × 0.1 mm. The Swelling degree ([6]; 100 μg/mouse i.p.) was 189%, the Swelling degree ([6]; 100 μg/mouse oral) was 148% and the “Increase in thickness of footpad” value ([6]; 1 mg/mouse i.p.) was 13.1 ± 0.4 × 0.1 mm. The Swelling degree ([6]; 1 mg/mouse i.p.) was 158%, the Swelling degree ([6]; 1 mg/mouse oral) was 133% and the “potentiating effect on establishment of cellular immunity” value ([6]; i.p., 1 mg to 0.1 μg/mouse) was “intensive potentiating effect”. For the same molecule, the “potentiating effect on DTH response” value ([6]; intravenous injection) was “potentiating effect has also been observed”, the “potentiating effect on DTH response” value ([6]; oral administration) was “potentiating effect has also been observed” and the “potentiation of the DTH response” value ([6]; oral, doses of 1 mg to 10 μg/mouse) was 30-50%. The “potentiating effect on DTH response” value ([6]; subcutaneous injection) was “potentiating effect has also been observed”, the immunopotentiating effect [7] was “also observed” and the “Average weight of tumors” value ([8]; 1 μg/mouse i.p. once a day) was 5740 mg. The “Average weight of tumors” value ([8]; 10 μg/mouse i.p. once a day) was 6190 mg, the “Average weight of tumors” value ([8]; 100 μg/mouse i.p. once a day) was 7970 mg and the Inhibition ([8]; 1 μg/mouse i.p. once a day) was 53.6%. For the same molecule, the Inhibition ([8]; 10 μg/mouse i.p. once a day) was 50.0%, the Inhibition ([8]; 100 μg/mouse i.p. once a day) was 35.6% and the “Average weight of tumors” value ([9]; 0.1 μg/mouse i.p. once a day) was 950 mg. The “Average weight of tumors” value ([9]; 1 μg/mouse i.p. once a day) was 930 mg, the “Average weight of tumors” value ([9]; 10 μg/mouse i.p. once a day) was 570 mg and the “inhibition of tumor growth compared to Bleomycin” value ([9]; BF-127 at 10 μg/mouse) was “superior or comparable to Bleomycin”. The Inhibition ([9]; 0.1 μg/mouse i.p. once a day) was 27.5%, the Inhibition ([9]; 1 μg/mouse i.p. once a day) was 29.0% and the Inhibition ([9]; 10 μg/mouse i.p. once a day) was 56.5%. The “Average weight of tumors” value ([10]; 1 μg/mouse (I.P.)) was 2206 mg, the “Average weight of tumors” value ([10]; 1 μg/mouse (P.O.)) was 2538 mg and the “Average weight of tumors” value ([10]; 10 μg/mouse (I.P.)) was 1312 mg. For the same molecule, the “Average weight of tumors” value ([10]; 10 μg/mouse (P.O.)) was 2638 mg, the Inhibition ([10]; 1 μg/mouse (I.P.)) was 60.8% and the Inhibition ([10]; 1 μg/mouse (P.O.)) was 55.0%. It also gave an Inhibition ([10]; 10 μg/mouse (I.P.)) of 76.8% and an Inhibition ([10]; 10 μg/mouse (P.O.)) of 53.0%.

With `CO[C@@]12[C@H](COC(N)=O)C3=C(C(=O)C(C)=C(N)C3=O)N1C[C@@H]1N[C@@H]12` [MMC, Mytomycin, reference compound] the “Average weight of tumors” value [8, 11] was 5510 mg and the Inhibition [8, 11] was 55.5%.

With Bleomycin [reference compound] the “Average weight of tumors” value ([8]; 100 μg/mouse i.p. once a day) was 5770 mg, the Inhibition ([8]; 100 μg/mouse i.p. once a day) was 53.4% and the “Average weight of tumors” value [9, 12] was 760 mg. It also gave an Inhibition [9, 12] of 42.0%.
